Data taken from US20240082203A1, “PHARMACEUTICAL COMPOSITION FOR INHALATION” (SHANGHAI HUILUN BIOLOGICAL TECHNOLOGY CO., LTD., priority 2020, published 2024).

What was measured:
physchem = type: physicochemical; conditions: water
Description: The solubility of sivelestat sodium in water is less than 0.4 mg/mL, which cannot meet the administration requirements as an injection or inhalation preparation. Besides, sivelestat sodium is prone to hydrolysis in aqueous solution, generating the impurity with the following structure (hereinafter referred to as “impurity A”).

[1] = lyophilized preparation of Document 5 (anhydrous sodium carbonate, sodium chloride) kept at 60° C. for two weeks, per Document 4; cited from earlier work

CC(C)(C)C(=O)Oc1ccc(S(=O)(=O)Nc2ccccc2C(=O)NCC(=O)O)cc1 [sivelestat sodium, N-[2-[[[4-(2,2-dimethyl-1-oxopropoxy)phenyl]sulfonyl]amino]benzoyl]-(S)-glycine]
solubility (physchem): < 400 µg/mL
residual rate of sivelestat sodium [1]: 91.4%
